Positions of bridges follow the written chain, without caps; N, C: chain ends. Non-standard residues stand in square brackets, D forms with d. Residues, ends and D or L forms follow the SMILES beside them. NMePhe(4-NO2) = CN[C@@H](Cc1ccc([N+](=O)[O-])cc1)C(=O)O; Phe(4-NO2) = N[C@@H](Cc1ccc([N+](=O)[O-])cc1)C(=O)O; 2Nal = N[C@@H](Cc1ccc2ccccc2c1)C(=O)O; d2Nal = N[C@H](Cc1ccc2ccccc2c1)C(=O)O; Abu = CC[C@H](N)C(=O)O
biological target: T1, rat somatostatin receptor subtype 2 (SSTR2) (Rattus norvegicus, UniProt P30680); assay: Yeast assay, somatostatin agonist activity (growth zone of modified yeast cells on histidine-free agar); assay type: cell-based; settings: rating on a scale of 1-5 from zone of growing cells; S. Cerevisiae LY364
T1 construct: expressed in transfected cells; host or cells: Saccharomyces cerevisiae LY364
Method: In this evaluation, yeast cells which have been specifically modified to functionally express rat somatostatin receptor subtype 2 (SSTR2) on their cell surfaces are used. S. Cerevisiae LY364 cells are plated in a standard synthetic agar medium which lacks histidine. In the absence of a somatostatin receptor agonist, the auxotrophic (his3) cells are unable to grow. In the presence of somatostatin, or a somatostatin agonist, the expression of an enzyme (His3p: imidazole-glycerol phosphate dehydratase) which is essential for histidine biosynthesis is induced. The cells become competent to produce histidine, resulting in a zone of growing cells around the applied test compound. The zone is measured and the test compound is given an agonist rating on a scale of 1-5 wherein 1 is minimum agonist activity and 5 is maximum agonist activity.
SCD-ura-trp: • 1) To 500 mL water add: • 1.7 g YNB without amino acids and (NH4)2SO4 • 5.0 g (NH4)2SO4 • 0.7 g CSM-ura-trp • 2) To additional 500 mL water add: 20 g Dextrose • 3) Autoclave separately. Mix.
SCL-ura-trp: • 1) To 500 mL water add: • 1.7 g YNB without amino acids and (NH4)2SO4 • 5.0 g (NH4)2SO4 • 0.7 g CSM-ura-trp • 2) To additional 500 mL water add: 30 mL Lactic Acid • 3) Autoclave separately. Mix.
SCG-ura-trp: • 1) To 500 mL water add: • 1.7 g YNB without amino acids and (NH4)2SO4 • 5.0 g (NH4)2SO4 • 0.7 g CSM-ura-trp • 2) To additional 500 mL water add: 30 g D-Galactose • 3) Autoclave separately. Mix.
SCG-ura-trp-his agar medium, pH 6.8: • 1) To 500 mL water add: • 1.7 g YNB without amino acids and (NH4)2SO4 • 5.0 g (NH4)2SO4 • 0.7 g CSM-ura-trp-his • Stirring Bar • 2) Adjust pH to 6.8-6.9 by dropwise addition of conc. NH4OH • 3) To additional 500 mL water add: 30 g D-Galactose, 20 g Agar • 4) Autoclave separately. • 5) Stir to mix thoroughly. • 6) Equilibrate temperature to 55°C. YNB without amino acids and (NH4)2SO4, CSM-ura-trp, and CSM-ura-trp-his are manufactured by Bio101. Ammonium sulfate ((NH4)2SO4), Dextrose (D-glucose), D-Galactose, and Lactic Acid are manufactured by Sigma.
• 1) Inoculate 2 mL SCD-ura-trp liquid medium in Falcon 2051 tube with a single colony taken from a plate containing LY364 (MATa ura3-52 leu2 his3 trp1 lys2 ade2 far1:: LYS2 fus1:: FUS1-HIS3 gpal::hisG sst2::ADE2 bearing the SSTR2 expression plasmid, pJH2, and the G protein expression plasmid, pLP82)cells. • 2) Incubate overnight in a roller drum at 30°C.
Day 2. • 1) Harvest the cells by centrifugation (3 krpm, 5 min, room temp). • 2) Re-suspend with 5 mL of sterile water. • 3) Harvest again by centrifugation. • 4) Re-suspend in 5 mL SCL-ura-trp liquid medium. • 5) Incubate for 6 hours in a roller drum at 30°C. • 6) Harvest the cells again by centrifugation. • 7) Re-suspend in 5 mL SCG-ura-trp liquid medium. • 8) Incubate overnight in a roller drum at 30°C.
Day 3. • 1) Autoclave SCG-ura-trp-his pH 6.8 agar medium. • 2) Cool to 55°C in water bath. • 3) Add 1 mL of LY364 culture to 1 liter of agar medium. • 4) Stir vigorously for 1 min. • 5) Pour 150 mL each into five 500 cm^2 plates. • 6) Allow to cool on level surface. • 7) Apply test compound.
On day 3, add 5µL 1 mg/mL S-14 to each plate. Day 5. Begin checking plates for growth around applied compounds. Day 7. Growth in response to somatostatin should be readily observable. Rate extent of growth or inhibition of growth according to rating scale described hereinabove.

T1 sequence (P30680 whole entry): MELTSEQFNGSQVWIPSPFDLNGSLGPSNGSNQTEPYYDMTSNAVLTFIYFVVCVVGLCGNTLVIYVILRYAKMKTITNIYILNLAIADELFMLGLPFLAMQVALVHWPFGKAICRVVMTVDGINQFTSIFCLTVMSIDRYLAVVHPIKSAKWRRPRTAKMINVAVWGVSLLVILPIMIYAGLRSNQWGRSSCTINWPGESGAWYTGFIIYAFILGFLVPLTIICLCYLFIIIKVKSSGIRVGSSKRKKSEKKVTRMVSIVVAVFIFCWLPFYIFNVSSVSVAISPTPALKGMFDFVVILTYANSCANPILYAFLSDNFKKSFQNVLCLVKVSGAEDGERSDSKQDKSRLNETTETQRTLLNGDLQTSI

SMILES	Yeast Assay Agonist
C[C@@H](O)[C@@H]1NC(=O)[C@H](CCCCN)NC(=O)[C@@H](Cc2c[nH]c3ccccc23)NC(=O)[C@H](Cc2ccc(O)cc2)NC(=O)[C@H](NC(=O)[C@@H](N)Cc2ccc([N+](=O)[O-])cc2)CSSC[C@@H](C(=O)N[C@H](Cc2ccc(O)cc2)C(N)=O)NC1=O	-
C[C@@H](O)[C@@H]1NC(=O)[C@H](CCCCN)NC(=O)[C@@H](Cc2c[nH]c3ccccc23)NC(=O)[C@H](Cc2ccc(O)cc2)NC(=O)[C@H](NC(=O)[C@@H](N)Cc2ccc([N+](=O)[O-])cc2)CSSC[C@@H](C(=O)N[C@@H](Cc2ccc(O)cc2)C(N)=O)NC1=O	-
CC(=O)N[C@@H](Cc1ccc([N+](=O)[O-])cc1)C(=O)N[C@@H]1CSSC[C@@H](C(=O)N[C@H](Cc2ccc(O)cc2)C(N)=O)NC(=O)[C@H]([C@@H](C)O)NC(=O)[C@H](CCCCN)NC(=O)[C@@H](Cc2c[nH]c3ccccc23)NC(=O)[C@H](Cc2ccc(O)cc2)NC1=O	-
CC(=O)N[C@@H](Cc1ccc2ccccc2c1)C(=O)N[C@@H]1CSSC[C@@H](C(=O)N[C@@H](Cc2ccc(O)cc2)C(N)=O)NC(=O)[C@H]([C@@H](C)O)NC(=O)[C@H](CCCCN)NC(=O)[C@@H](Cc2c[nH]c3ccccc23)NC(=O)[C@H](Cc2ccc(O)cc2)NC1=O (Ac-[2Nal][dC]Y[dW]KTCY-NH2; disulfide 2-7 (inferred))	-
CC(C)[C@@H]1NC(=O)[C@H](CCCCN)NC(=O)[C@@H](Cc2c[nH]c3ccccc23)NC(=O)[C@H](Cc2ccc(O)cc2)NC(=O)[C@H](NC(=O)[C@@H](N)Cc2ccc3ccccc3c2)CSSC[C@@H](C(=O)N[C@@H](Cc2ccc(O)cc2)C(N)=O)NC1=O (H-[2Nal][dC]Y[dW]KVCY-NH2; disulfide 2-7; N-terminus assumed)	-
CN[C@@H](Cc1ccc([N+](=O)[O-])cc1)C(=O)N[C@@H]1CSSC[C@@H](C(=O)N[C@@H](Cc2ccc(O)cc2)C(N)=O)NC(=O)[C@H](C(C)C)NC(=O)[C@H](CCCCN)NC(=O)[C@@H](Cc2c[nH]c3ccccc23)NC(=O)[C@H](Cc2ccc(O)cc2)NC1=O (H-[NMePhe(4-NO2)][dC]Y[dW]KVCY-NH2; disulfide 2-7 (inferred))	-
CC(C)[C@@H]1NC(=O)[C@H](CCCCN)NC(=O)[C@@H](Cc2c[nH]c3ccccc23)NC(=O)[C@H](Cc2ccc(O)cc2)NC(=O)[C@H](NC(=O)[C@@H](N)Cc2ccc([N+](=O)[O-])cc2)CSSC[C@@H](C(=O)N[C@@H](Cc2ccc(O)cc2)C(N)=O)NC1=O (H-[Phe(4-NO2)][dC]Y[dW]KVCY-NH2; disulfide 2-7 (inferred))	-
CC(C)[C@@H]1NC(=O)[C@H](CCCCN)NC(=O)[C@@H](Cc2c[nH]c3ccccc23)NC(=O)[C@H](Cc2ccc(O)cc2)NC(=O)[C@H](NC(=O)[C@@H](N)Cc2ccc([N+](=O)[O-])cc2)CSSC[C@@H](C(=O)N[C@@H](Cc2ccc3ccccc3c2)C(N)=O)NC1=O (H-[Phe(4-NO2)][dC]Y[dW]KVC[2Nal]-NH2; disulfide 2-7 (inferred))	-
CC[C@@H]1NC(=O)[C@H](CCCCN)NC(=O)[C@@H](Cc2c[nH]c3ccccc23)NC(=O)[C@H](Cc2ccc(O)cc2)NC(=O)[C@H](NC(=O)[C@@H](N)Cc2ccc([N+](=O)[O-])cc2)CSSC[C@@H](C(=O)N[C@@H](Cc2ccc(O)cc2)C(N)=O)NC1=O (H-[Phe(4-NO2)][dC]Y[dW]K[Abu]CY-NH2; disulfide 2-7 (inferred))	-
CC(C)[C@@H]1NC(=O)[C@H](CCCCN)NC(=O)[C@@H](Cc2c[nH]c3ccccc23)NC(=O)[C@H](Cc2ccc(O)cc2)NC(=O)[C@H](NC(=O)[C@H](N)Cc2ccc3ccccc3c2)CSSC[C@@H](C(=O)N[C@@H](Cc2ccc(O)cc2)C(N)=O)NC1=O (H-[d2Nal][dC]Y[dW]KVCY-NH2; disulfide 2-7)	-

From patent EP0791603A2, “Pure somatostatin antagonist and methods of use thereof” (American Cyanamid Company, priority 1996, dated 1997)
